Series [1] has as its target T1, ADAM10 (Homo sapiens, UniProt O14672).
T1 sequence (O14672 214-748): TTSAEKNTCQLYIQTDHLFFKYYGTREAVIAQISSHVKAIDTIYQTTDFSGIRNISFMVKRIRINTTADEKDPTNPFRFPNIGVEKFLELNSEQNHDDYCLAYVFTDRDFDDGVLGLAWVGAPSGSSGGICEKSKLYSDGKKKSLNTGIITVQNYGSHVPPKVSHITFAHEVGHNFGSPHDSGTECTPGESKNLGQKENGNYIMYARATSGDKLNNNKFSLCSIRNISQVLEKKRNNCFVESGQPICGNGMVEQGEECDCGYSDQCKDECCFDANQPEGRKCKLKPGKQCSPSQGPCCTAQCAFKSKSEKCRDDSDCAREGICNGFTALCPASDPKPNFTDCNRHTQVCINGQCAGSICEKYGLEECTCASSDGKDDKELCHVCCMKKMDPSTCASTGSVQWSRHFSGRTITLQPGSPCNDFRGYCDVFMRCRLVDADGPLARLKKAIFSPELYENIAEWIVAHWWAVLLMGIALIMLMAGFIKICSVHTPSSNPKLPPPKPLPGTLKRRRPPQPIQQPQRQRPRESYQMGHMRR
Put plainly: off-target proteinase inhibition ADAM10. It counts as biochemical. To be noted: read-out: Relative enzyme activity ADAM10.

Series [2] has as its target T2, mouse ovastacin (Mus musculus, UniProt Q6HA09).
T2 sequence (Q6HA09 86-435 limits assumed): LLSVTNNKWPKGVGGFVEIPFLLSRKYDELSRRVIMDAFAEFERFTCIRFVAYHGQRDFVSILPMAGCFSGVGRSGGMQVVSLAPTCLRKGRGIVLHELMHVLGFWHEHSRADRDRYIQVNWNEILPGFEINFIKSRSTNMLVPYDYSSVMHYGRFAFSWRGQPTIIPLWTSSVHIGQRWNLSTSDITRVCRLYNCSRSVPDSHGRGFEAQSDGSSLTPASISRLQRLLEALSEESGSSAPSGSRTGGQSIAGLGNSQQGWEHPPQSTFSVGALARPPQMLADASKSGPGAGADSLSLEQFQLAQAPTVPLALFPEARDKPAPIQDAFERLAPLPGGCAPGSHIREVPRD
Briefly: ovastacin inhibition, fluorogenic enzyme activity assay.

Series [3] deals with MMP13 (Homo sapiens, UniProt P45452). Briefly: off-target proteinase inhibition MMP13. Conditions: read-out: Relative enzyme activity MMP13. It counts as biochemical.
The nature of series [4]: cell-viability assay. In kind it is cell-based. To be noted: human, Hep-G2 cells.
The target in series [5] is ADAM17 (Homo sapiens, UniProt P78536). Put plainly: off-target proteinase inhibition ADAM17. To be noted: read-out: Relative enzyme activity ADAM17. It counts as biochemical.
Series [6] deals with T3, recombinant human meprin α (Homo sapiens, UniProt Q16819).
T3 sequence (Q16819 66-746): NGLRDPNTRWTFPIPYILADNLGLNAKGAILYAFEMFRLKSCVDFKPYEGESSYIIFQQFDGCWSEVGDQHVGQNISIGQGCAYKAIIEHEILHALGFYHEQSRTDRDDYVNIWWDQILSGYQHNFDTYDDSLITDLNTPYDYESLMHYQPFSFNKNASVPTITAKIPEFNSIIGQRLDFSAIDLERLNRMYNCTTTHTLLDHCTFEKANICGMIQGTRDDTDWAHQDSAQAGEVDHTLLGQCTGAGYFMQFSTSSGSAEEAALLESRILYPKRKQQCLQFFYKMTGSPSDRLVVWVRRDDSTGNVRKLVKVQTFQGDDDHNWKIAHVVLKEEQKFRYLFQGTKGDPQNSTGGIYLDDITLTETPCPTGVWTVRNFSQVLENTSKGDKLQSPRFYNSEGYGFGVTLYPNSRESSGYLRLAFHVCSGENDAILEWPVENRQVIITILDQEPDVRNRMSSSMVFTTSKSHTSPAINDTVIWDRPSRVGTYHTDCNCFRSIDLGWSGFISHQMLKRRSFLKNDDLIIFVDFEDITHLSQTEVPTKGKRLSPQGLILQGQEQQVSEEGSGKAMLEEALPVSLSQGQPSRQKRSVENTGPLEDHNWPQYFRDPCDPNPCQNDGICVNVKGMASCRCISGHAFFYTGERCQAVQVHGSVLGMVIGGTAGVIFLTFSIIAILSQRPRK
Briefly: meprin α inhibition, quenched fluorogenic peptide substrate assay. In kind it is biochemical. Conditions: for SF: selectivity factor (K i app meprin β/K i app meprin α): meprin α over meprin β.

Series [7] deals with T4, MMP2 (Homo sapiens, UniProt P08253).
T4 sequence (P08253 110-660): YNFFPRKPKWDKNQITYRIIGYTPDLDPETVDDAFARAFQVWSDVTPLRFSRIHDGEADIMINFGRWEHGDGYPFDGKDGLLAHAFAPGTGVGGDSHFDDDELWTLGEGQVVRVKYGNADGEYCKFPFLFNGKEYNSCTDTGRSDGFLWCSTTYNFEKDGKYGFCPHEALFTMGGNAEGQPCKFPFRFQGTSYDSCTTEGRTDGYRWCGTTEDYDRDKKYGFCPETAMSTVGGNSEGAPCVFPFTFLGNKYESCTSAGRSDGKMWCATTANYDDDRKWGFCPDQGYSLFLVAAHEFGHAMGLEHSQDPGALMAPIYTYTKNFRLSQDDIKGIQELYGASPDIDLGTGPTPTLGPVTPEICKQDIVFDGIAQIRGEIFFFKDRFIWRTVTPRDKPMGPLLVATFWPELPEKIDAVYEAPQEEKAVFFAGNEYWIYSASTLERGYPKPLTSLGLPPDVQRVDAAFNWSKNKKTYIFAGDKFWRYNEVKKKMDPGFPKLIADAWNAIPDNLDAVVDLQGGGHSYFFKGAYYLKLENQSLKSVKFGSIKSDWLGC
Briefly: off-target proteinase inhibition MMP2. It counts as biochemical. To be noted: read-out: Relative enzyme activity MMP2.

The target in series [8] is T5, recombinant human meprin β (Homo sapiens, UniProt Q16820).
T5 sequence (Q16820 62-701): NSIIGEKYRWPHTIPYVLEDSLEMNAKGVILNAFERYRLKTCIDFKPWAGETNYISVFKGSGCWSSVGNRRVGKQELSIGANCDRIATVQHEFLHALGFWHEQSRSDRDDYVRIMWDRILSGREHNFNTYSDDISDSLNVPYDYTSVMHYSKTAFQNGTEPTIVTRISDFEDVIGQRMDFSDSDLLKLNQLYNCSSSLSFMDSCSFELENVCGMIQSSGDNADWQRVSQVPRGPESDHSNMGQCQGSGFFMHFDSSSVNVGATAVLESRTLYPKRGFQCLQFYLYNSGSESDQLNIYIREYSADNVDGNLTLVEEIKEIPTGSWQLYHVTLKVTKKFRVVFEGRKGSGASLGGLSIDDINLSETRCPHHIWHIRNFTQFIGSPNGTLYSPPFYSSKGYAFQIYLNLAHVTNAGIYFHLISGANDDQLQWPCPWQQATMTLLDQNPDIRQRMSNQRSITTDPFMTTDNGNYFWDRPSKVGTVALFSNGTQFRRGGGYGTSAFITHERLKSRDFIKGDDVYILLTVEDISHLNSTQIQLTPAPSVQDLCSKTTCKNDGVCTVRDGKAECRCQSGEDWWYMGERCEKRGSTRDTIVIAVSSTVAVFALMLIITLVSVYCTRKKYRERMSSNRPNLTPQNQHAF
Put plainly: meprin β inhibition, quenched fluorogenic peptide substrate assay. In kind it is biochemical.

The nature of series [9]: cell-viability assay. To be noted: human, SH-SY5Y cells. In kind it is cell-based.
For series [10], the target named is MMP9 (Homo sapiens, UniProt P14780). Briefly: off-target proteinase inhibition MMP9. It counts as biochemical. To be noted: read-out: Relative enzyme activity MMP9.

“And” between values parts separate entries of the source, which are not always exact repeats. Equal entries are not always repeated.

We go through 5 compounds from paper PMC8048867 (Chemmedchem, 2020).

Broadly, the Ki is the dissociation constant of the complex between target and ligand, obtained from inhibition or displacement. The viability is a read-out of living cells in per cent, often relative to untreated cells.

MMP9, sequence (P14780 107-707 limits assumed): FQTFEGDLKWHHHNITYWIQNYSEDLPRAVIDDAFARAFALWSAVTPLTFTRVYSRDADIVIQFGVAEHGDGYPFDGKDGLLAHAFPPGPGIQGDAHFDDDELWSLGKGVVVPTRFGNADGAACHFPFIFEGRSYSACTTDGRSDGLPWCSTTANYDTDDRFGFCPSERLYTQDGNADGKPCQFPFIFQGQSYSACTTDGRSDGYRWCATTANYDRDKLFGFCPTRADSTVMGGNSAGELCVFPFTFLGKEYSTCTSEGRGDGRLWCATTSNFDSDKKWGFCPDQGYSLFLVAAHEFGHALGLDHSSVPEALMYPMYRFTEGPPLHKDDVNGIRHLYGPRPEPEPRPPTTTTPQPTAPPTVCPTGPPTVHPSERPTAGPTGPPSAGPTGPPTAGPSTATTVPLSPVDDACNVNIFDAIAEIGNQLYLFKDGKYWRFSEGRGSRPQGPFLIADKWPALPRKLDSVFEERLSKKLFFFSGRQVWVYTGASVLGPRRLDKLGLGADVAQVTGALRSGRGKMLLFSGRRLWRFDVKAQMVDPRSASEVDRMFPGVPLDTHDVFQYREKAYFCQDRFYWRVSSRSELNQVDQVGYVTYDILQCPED
ADAM17, sequence (P78536 215-824): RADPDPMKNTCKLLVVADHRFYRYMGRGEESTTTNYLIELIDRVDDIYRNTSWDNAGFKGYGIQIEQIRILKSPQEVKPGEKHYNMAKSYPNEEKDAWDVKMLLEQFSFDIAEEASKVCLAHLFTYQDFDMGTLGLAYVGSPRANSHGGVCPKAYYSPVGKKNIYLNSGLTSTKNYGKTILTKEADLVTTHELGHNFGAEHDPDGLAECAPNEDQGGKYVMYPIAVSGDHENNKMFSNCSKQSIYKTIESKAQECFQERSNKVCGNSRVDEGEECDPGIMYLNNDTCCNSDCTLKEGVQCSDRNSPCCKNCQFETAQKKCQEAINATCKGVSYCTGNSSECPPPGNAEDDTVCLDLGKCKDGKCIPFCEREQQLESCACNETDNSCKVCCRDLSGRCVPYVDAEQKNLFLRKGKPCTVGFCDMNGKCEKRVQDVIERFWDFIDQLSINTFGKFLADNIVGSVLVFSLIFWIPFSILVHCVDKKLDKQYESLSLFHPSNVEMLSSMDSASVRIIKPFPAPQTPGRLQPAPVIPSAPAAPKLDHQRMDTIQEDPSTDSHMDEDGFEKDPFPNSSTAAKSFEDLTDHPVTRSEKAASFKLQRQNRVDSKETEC

For the compound `O=C(Cc1c(-c2ccccc2)noc1-c1ccccc1)NO` [2 c, 2‐(3,5‐Diphenylisoxazol‐4‐yl)ethanehydroxamic acid], the remaining activity at 10 µM in series [1] was 80%; in [3], 80%; in series [5], 62%; in [7], 87%; in series [10], 86%. In addition, the remaining activity at 200 µM turned out to be 22% in series [1]; 31% in series [3]; 9% in series [5]; 34% in series [7]; 16% in series [10]. Also, the Ki came to 66 nM in series [2] and 813 nM in [8]. Moreover, the “SF Meprin α: selectivity factor (K i app ovastacin/K i app meprin α)” value (shortened to “SF Meprin α: selectivity factor”) in series [2] is on record as 17. For the same compound, the “SF Meprin β: selectivity factor (K i app ovastacin/K i app meprin β)” value (“SF Meprin β: selectivity factor” for short) in [2] was found to be 0.1. Moreover, the viability at 24 h, 30 µM in series [4] is 85%; in [9] it was 96%. The “fold improvement in potency against meprin α compared to amine 1 d” value in series [6] (compared to 1 d) is 2000 fold. Further, the “fold increase in activity against meprin α compared to 2 a” value in [6] (compared to pyrrole 2 a) is reported as 5 fold. For the same compound, the “SF: selectivity factor (K i app meprin β/K i app meprin α)” value (“SF: selectivity factor” below) in [6] was 200 and 203. In addition, the “fold increase in activity against meprin β compared to 2 a” value in series [8] (compared to pyrrole 2 a) is on record as 5 fold.

In the case of `O=C(CCc1c(-c2ccccc2)noc1-c1ccccc1)NO` [2 d, 3‐(3,5‐Diphenylisoxazol‐4‐yl)propanehydroxamic acid], the remaining activity at 10 µM stood at 75% in series [1]; 79% in [3]; 75% in [5]; 98% in [7]; 89% in series [10]. Besides, the remaining activity at 200 µM in [1] came out at 21%; in [3], 66%; in series [5] it was 24%; in series [7], 74%; in [10] it was 39%. The viability at 24 h, 30 µM in series [4] is 90%; in [9] it was 123%. The Ki in [6] was found to be 31 nM; in series [8], 13500 nM. Moreover, the “SF: selectivity factor” value in [6] was determined as 435.

`O=C(Cc1c(-c2ccccc2)n[nH]c1-c1ccccc1)NO` [2 e, 2‐(3,5‐Diphenyl‐1H‐pyrazol‐4‐yl)ethanehydroxamic acid]: the remaining activity at 10 µM in [1] came to 73%; in series [3] it was 75%; in series [5], 61%; in [7], 104%; in [10] it was 81%. In addition, the remaining activity at 200 µM was 23% in [1]; 67% in series [3]; 7% in [5]; 61% in series [7]; 27% in [10]. For the same compound, the Ki in [2] was 196 nM; in [6], 3 nM; in [8], 199 nM. In addition, the “SF Meprin α: selectivity factor” value in [2] is on record as 65. The “SF Meprin β: selectivity factor” value in series [2] amounted to 1. Besides, the “SF: selectivity factor” value in series [6] was 66.

On to `O=C(CCc1c(-c2ccccc2)n[nH]c1-c1ccccc1)NO` [2 f, 3‐(3,5‐Diphenyl‐1H‐pyrazol‐4‐yl)propanehydroxamic acid], for which the remaining activity at 10 µM in [1] was determined as 66%; in series [3], 93%; in series [5] it was 76%; in series [7] it was 97%; in series [10] it was 93%. In addition, the remaining activity at 200 µM in [1] worked out at 12%; in [3], 68%; in [5], 27%; in [7], 77%; in [10], 65%. The Ki in series [2] was found to be 2420 nM; in [6] it was 76 nM; in series [8] it was 8030 nM. For the same compound, the “SF Meprin α: selectivity factor” value in series [2] was 32. Further, the “SF Meprin β: selectivity factor” value in series [2] was found to be 0.3. Further, the viability at 24 h, 30 µM in [4] and in series [9] was 93% in each case. In series [6], the “SF: selectivity factor” value stood at 106.

`O=C(Cn1c(-c2ccccc2)cc2ccccc21)NO` [4 a, 2‐(2‐Phenylindol‐1‐yl)ethanehydroxamic acid]: the remaining activity at 10 µM in series [1] was determined as 89%; in [3] it was 77%; in series [5] it was 88%; in [7], 85%; in series [10], 90%. The remaining activity at 200 µM worked out at 68% in series [1]; 54% in series [3]; 56% in series [5]; 41% in [7]; 53% in [10]. In addition, the Ki is 93 nM in [2], 69 nM in series [6] and 1080 nM in series [8]. Also, the “SF Meprin α: selectivity factor” value in [2] was determined as 1.3. Moreover, in [2], the “SF Meprin β: selectivity factor” value is 0.1. Also, the “SF: selectivity factor” value in [6] is 16.
